Results taken from publication PMC6274554, “Synthetic Strategy and Anti-Tumor Activities of Macrocyclic Scaffolds Based on 4-Hydroxyproline” (Molecules, 2016).
pIC50: −log10 of the molar value.

Assays:
Assay type in all cases: cell-based, human
[1] = system: hepatocarcinoma cell line Hep G2; experiment: MTT cytotoxicity assay, Hep G2; conditions: Homo sapiens, HepG2, Hep G2 cells, 8000 cells/well, 24 h incubation with compound, absorbance 490 nm, read-out: IC50 (μmol/L) Hep G2
Description: (§1) A small library derived from 6a–b, 9 and 10a–c was obtained by hydrolysis of the macrocycles and condensation with amines. The anti-tumor activities for lung cancer cell line A549, breast cancer cell line MDA-MB-231 and hepatocarcinoma cell line Hep G2 of all these new compounds were screened in vitro by an MTT assay. Most of the compounds show some inhibitory activities against A549, MDA-MB-231 and Hep G2. […] In the future, further structure–activity relationship studies will be performed to determine how the substituents affected the anti-tumor activity and to design the best chemical structure in the future.
(§2) The human lung cancer cell line A549, breast cancer cell line MDA-MB-231 and hepatocarcinoma cell line Hep G2 were cultured in Dulbecco’s modified Eagle’s medium (DMEM) supplemented with antibiotics (penicillin 50 U/mL; streptomycin 50 µg/mL) and 10% FCS. The incubation was at 37 °C in a humidified atmosphere of 5% CO2 in air before experiments. Cells were first seeded at a density of 8000 cells/well in a 96-well plate for 48 hours. Solutions containing respective concentrations of compounds were added into wells and incubation continued for another 24 hours. After that, the MTT (3-(4,5-dimethylthiazol-2-yl)-2,5-diphenyltetrazolium bromide) dye stock solution (10 μL, 5 mg/mL) was added to each well. After 4 h, the supernatant was removed and DMSO (100 μL) was added to solubilize the MTT. The absorbance was measured at a wave length of 490 nm (A490nm) on an ELISA microplate reader. Results were expressed as IC50 values.

[2] = system: lung cancer cell line A549; experiment: MTT cytotoxicity assay, A549; conditions: Homo sapiens, A549 cells, 8000 cells/well, 24 h incubation with compound, absorbance 490 nm, read-out: IC50 (μmol/L) A549
Description: as §1, §2

[3] = system: breast cancer cell line MDA-MB-231; experiment: MTT cytotoxicity assay, MDA-MB-231; conditions: Homo sapiens, MDA-MB-231 cells, 8000 cells/well, 24 h incubation with compound, absorbance 490 nm, read-out: IC50 (μmol/L) MDA-MB-231
Description: as §1, §2

`CC(C)CNC(=O)[C@@H]1C[C@@H]2CN1C(=O)c1cccc(c1)OCCCCCCO2` [Compound 45, (10R,12S)-14-oxo-N-Isobutyl-2,9-dioxa-13-aza-tricyclo[13.3.1.1^10,13]eicosane-1(19),15,17-triene-12-carboxamide] gave a pIC50 [1] of 4.05, a pIC50 [2] of 4.03 and a pIC50 [3] of 4.05.
